# Source: PubChem BioAssay AID1259407 (Chemical Carcinogenesis Research Information System (CCRIS), 2018)
# Activity calls are given as the source filed them. No rule for the calls is given here.
# Tested on: CCRIS mutagenicity, Ames/micronucleus/aberration tests
# Assay: CCRIS mutagenicity studies
# [1] = Test System: AMES SALMONELLA TYPHIMURIUM, Strain/Indicator: TA98, Metabolic Activation: RAT, LIVER, S-9, AROCLOR 1254, Method: STANDARD PLATE
# [2] = Test System: AMES SALMONELLA TYPHIMURIUM, Strain/Indicator: TA100, Metabolic Activation: RAT, LIVER, S-9, AROCLOR 1254, Method: STANDARD PLATE
smiles,measurement,setting,value
Nc1ccc(-c2ccc(N)c(Cl)c2)cc1Cl,mutagenic call,"Test System: AMES SALMONELLA TYPHIMURIUM, Strain/Indicator: TA98(1,8-DNP6), Metabolic Activation: NONE, Method: STANDARD PLATE",active; positive
same,mutagenic call,"Test System: AMES SALMONELLA TYPHIMURIUM, Strain/Indicator: TA98(1,8-DNP6), Metabolic Activation: S-9, Method: STANDARD PLATE",active; positive
same,mutagenic call,"Test System: AMES SALMONELLA TYPHIMURIUM, Strain/Indicator: TA98/1,8-DNP6, Metabolic Activation: HAMSTER, LIVER, S-9, Method: PREINCUBATION",active; positive
same,mutagenic call,"Test System: AMES SALMONELLA TYPHIMURIUM, Strain/Indicator: TA98/1,8-DNP6, Metabolic Activation: NONE, Method: PREINCUBATION",active; positive
same,mutagenic call,"Test System: AMES SALMONELLA TYPHIMURIUM, Strain/Indicator: TA98, Metabolic Activation: HAMSTER, LIVER, S-9, AROCLOR 1254, Method: PREINCUBATION",active; positive
same,mutagenic call,"Test System: AMES SALMONELLA TYPHIMURIUM, Strain/Indicator: TA98, Metabolic Activation: HAMSTER, LIVER, S-9, Method: PREINCUBATION",active; positive
same,mutagenic call,"Test System: AMES SALMONELLA TYPHIMURIUM, Strain/Indicator: TA98, Metabolic Activation: MOUSE, LIVER, S-9, Method: STANDARD PLATE",active; positive
same,mutagenic call,"Test System: AMES SALMONELLA TYPHIMURIUM, Strain/Indicator: TA98, Metabolic Activation: NONE, Method: PREINCUBATION",active; positive
same,mutagenic call,"Test System: AMES SALMONELLA TYPHIMURIUM, Strain/Indicator: TA98, Metabolic Activation: NONE, Method: STANDARD PLATE",active; positive
same,mutagenic call,"Test System: AMES SALMONELLA TYPHIMURIUM, Strain/Indicator: TA98, Metabolic Activation: RAT LIVER S-9, AROCLOR 1254, Method: PREINCUBATION",active; positive
same,mutagenic call,"Test System: AMES SALMONELLA TYPHIMURIUM, Strain/Indicator: TA98, Metabolic Activation: RAT, LIVER, S-9, AROCLOR 1254, Method: PREINCUBATION",active; positive
same,mutagenic call,[1],active; positive
same,mutagenic call,"Test System: AMES SALMONELLA TYPHIMURIUM, Strain/Indicator: TA98, Metabolic Activation: S-9, Method: STANDARD PLATE",active; positive
same,mutagenic call,"Test System: AMES SALMONELLA TYPHIMURIUM, Strain/Indicator: TA100, Metabolic Activation: HAMSTER, LIVER, S-9, AROCLOR 1254, Method: PREINCUBATION",active; positive
same,mutagenic call,"Test System: AMES SALMONELLA TYPHIMURIUM, Strain/Indicator: TA100, Metabolic Activation: NONE, Method: PREINCUBATION",inactive; negative
same,mutagenic call,"Test System: AMES SALMONELLA TYPHIMURIUM, Strain/Indicator: TA100, Metabolic Activation: NONE, Method: STANDARD PLATE",inactive; negative
same,mutagenic call,"Test System: AMES SALMONELLA TYPHIMURIUM, Strain/Indicator: TA100, Metabolic Activation: RAT LIVER S-9, AROCLOR 1254, Method: PREINCUBATION",active; positive
same,mutagenic call,"Test System: AMES SALMONELLA TYPHIMURIUM, Strain/Indicator: TA100, Metabolic Activation: RAT, LIVER, S-9, AROCLOR 1254, Method: PREINCUBATION",active; positive
same,mutagenic call,[2],active; positive
same,mutagenic call,"Test System: AMES SALMONELLA TYPHIMURIUM, Strain/Indicator: TA100, Metabolic Activation: S-9, Method: STANDARD PLATE",active; positive
same,mutagenic call,"Test System: AMES SALMONELLA TYPHIMURIUM, Strain/Indicator: TA1535, Metabolic Activation: HAMSTER, LIVER, S-9, AROCLOR 1254, Method: PREINCUBATION",inactive; negative
same,mutagenic call,"Test System: AMES SALMONELLA TYPHIMURIUM, Strain/Indicator: TA1535, Metabolic Activation: NONE, Method: PREINCUBATION",inactive; negative
same,mutagenic call,"Test System: AMES SALMONELLA TYPHIMURIUM, Strain/Indicator: TA1535, Metabolic Activation: RAT, LIVER, S-9, AROCLOR 1254, Method: PREINCUBATION",inactive; negative
same,mutagenic call,"Test System: AMES SALMONELLA TYPHIMURIUM, Strain/Indicator: TA1535, Metabolic Activation: RAT, LIVER, S-9, AROCLOR 1254, Method: STANDARD PLATE",active; positive
same,mutagenic call,"Test System: AMES SALMONELLA TYPHIMURIUM, Strain/Indicator: TA1537, Metabolic Activation: HAMSTER, LIVER, S-9, AROCLOR 1254, Method: PREINCUBATION",active; positive
same,mutagenic call,"Test System: AMES SALMONELLA TYPHIMURIUM, Strain/Indicator: TA1537, Metabolic Activation: NONE, Method: PREINCUBATION",inactive; negative
same,mutagenic call,"Test System: AMES SALMONELLA TYPHIMURIUM, Strain/Indicator: TA1537, Metabolic Activation: RAT, LIVER, S-9, AROCLOR 1254, Method: PREINCUBATION",active; positive
same,mutagenic call,"Test System: AMES SALMONELLA TYPHIMURIUM, Strain/Indicator: TA1537, Metabolic Activation: RAT, LIVER, S-9, PHENOBARBITAL, Method: STANDARD PLATE",active; positive
same,mutagenic call,"Test System: AMES SALMONELLA TYPHIMURIUM, Strain/Indicator: TA1538, Metabolic Activation: HAMSTER, LIVER, S-9, Method: STANDARD PLATE",active; positive
same,mutagenic call,"Test System: AMES SALMONELLA TYPHIMURIUM, Strain/Indicator: TA1538, Metabolic Activation: NONE, Method: STANDARD PLATE",active; positive
same,mutagenic call,"Test System: AMES SALMONELLA TYPHIMURIUM, Strain/Indicator: TA1538, Metabolic Activation: RAT, LIVER, S-9, AROCLOR 1254, Method: STANDARD PLATE",active; positive
same,mutagenic call,"Test System: AMES SALMONELLA TYPHIMURIUM, Strain/Indicator: TA1538, Metabolic Activation: RAT, LIVER, S-9, PHENOBARBITAL, Method: STANDARD PLATE",active; positive
same,mutagenic call,"Test System: Ames Salmonella typhimurium, Strain/Indicator: TA102, Metabolic Activation: None, Method: Preincubation",active; positive
same,mutagenic call,"Test System: Ames Salmonella typhimurium, Strain/Indicator: TA102, Metabolic Activation: Rat, liver, S-9, Aroclor 1254, 4%, Method: Preincubation",active; positive
same,mutagenic call,"Test System: UDS HUMAN FIBROBLASTS, Strain/Indicator: THY INCORP (NON-S-PHASE), Metabolic Activation: NONE, Method: LIQUID SCINTILLATION COUNTING",active; positive
C[C@H]1CCC/C=C/[C@@H]2C[C@H](O)C[C@H]2[C@H](O)/C=C/C(=O)O1,mutagenic call,"Test System: Mouse lymphoma, Strain/Indicator: L5178Y (tk+/tk-), Metabolic Activation: None, Method: Suspension/plate",inactive; negative
same,mutagenic call,"Test System: Mouse lymphoma, Strain/Indicator: L5178Y (tk+/tk-), Metabolic Activation: Rat, Liver, S-9, Aroclor 1254, Method: Suspension/plate",equivocal
COc1nc(N)nc2c1ncn2[C@H]1C[C@H](O)[C@@H](COP(=O)(O)OP(=O)(O)OP(=O)(O)O)O1,mutagenic call,"Test System: CHINESE HAMSTER OVARY, Strain/Indicator: CHO-K1 (HGPRT), Metabolic Activation: NONE",inactive; negative
c1ccc2c(c1)ccc1c3cccnc3ccc21,mutagenic call,[1],active; positive
same,mutagenic call,[2],active; positive
CSC1=N[C@@](C)(c2ccccc2)C(=O)N1Nc1ccccc1,mutagenic call,"End Point: In vitro chromosomal aberrations, Test System: Human peripheral blood lymphocytes, Metabolic Activation: None",active; positive
same,mutagenic call,"End Point: In vitro chromosomal aberrations, Test System: Human peripheral blood lymphocytes, Metabolic Activation: S-9",active; positive
same,mutagenic call,"End Point: In vivo micronucleus, Test System: Bone marrow polychromatic erythrocytes, Species: Mouse, Strain/Sex: CD-1/Male and female, Route: Intraperitoneal",inactive; negative
same,mutagenic call,"End Point: UDS, Test System: Rat hepatocytes, Species: Wistar/Male, Method: Autoradiography",inactive; negative. (higher doses too toxic to score)
same,mutagenic call,"Test System: Ames Salmonella typhimurium, Strain/Indicator: TA98, Metabolic Activation: None, Method: Plate incorporation and preincubation",inactive; negative
same,mutagenic call,"Test System: Ames Salmonella typhimurium, Strain/Indicator: TA98, Metabolic Activation: Rat, Liver, S-9, Method: Plate incorporation and preincubation",inactive; negative
same,mutagenic call,"Test System: Ames Salmonella typhimurium, Strain/Indicator: TA100, Metabolic Activation: None, Method: Plate incorporation and preincubation",inactive; negative
same,mutagenic call,"Test System: Ames Salmonella typhimurium, Strain/Indicator: TA100, Metabolic Activation: Rat, Liver, S-9, Method: Plate incorporation and preincubation",inactive; negative
same,mutagenic call,"Test System: Ames Salmonella typhimurium, Strain/Indicator: TA102, Metabolic Activation: None, Method: Plate incorporation and preincubation",inactive; negative
same,mutagenic call,"Test System: Ames Salmonella typhimurium, Strain/Indicator: TA102, Metabolic Activation: Rat, Liver, S-9, Method: Plate incorporation and preincubation",inactive; negative
same,mutagenic call,"Test System: Ames Salmonella typhimurium, Strain/Indicator: TA1535, Metabolic Activation: None, Method: Plate incorporation and preincubation",inactive; negative
same,mutagenic call,"Test System: Ames Salmonella typhimurium, Strain/Indicator: TA1535, Metabolic Activation: Rat, Liver, S-9, Method: Plate incorporation and preincubation",inactive; negative
same,mutagenic call,"Test System: Ames Salmonella typhimurium, Strain/Indicator: TA1537, Metabolic Activation: None, Method: Plate incorporation and preincubation",inactive; negative
same,mutagenic call,"Test System: Ames Salmonella typhimurium, Strain/Indicator: TA1537, Metabolic Activation: Rat, Liver, S-9, Method: Plate incorporation and preincubation",inactive; negative
same,mutagenic call,"Test System: Mouse lymphoma, Strain/Indicator: L5178Y (tk+/tk-), Metabolic Activation: None, Method: Microtiter fluctuation",inactive; negative
same,mutagenic call,"Test System: Mouse lymphoma, Strain/Indicator: L5178Y (tk+/tk-), Metabolic Activation: S-9, Method: Microtiter fluctuation",active; positive. (increase in small colony mutant frequency indicates clastogenicity)
